Test results as given in patent US4367232A, “Piperidine derivatives” (Fordonal, S.A., priority 1976, dated 1983).

Key:
Format in all cases: in vivo
[1] = test system: apomorphineinduced gnawing behaviour; assay: Inhibition of apomorphine-induced gnawing behaviour in the rat; settings: oral, approximate ED50, read-out: Anti-apomorphine: approximate oral ED50 value for inhibition of apomorphineinduced gnawing behaviour
Description: (§1) Standard pharmaceutical tests have been run with mice and rats using compounds of this invention. The instant compounds have been compared with Clebopride hydrochloride, i.e., N-(1-benzylpiperid-4-yl)-2-methoxy-4-amino-5-chlorobenzamide hydrochloride, which is disclosed in co-pending U.S. patent application Ser. No. 558,908 filed Mar. 17, 1975, incorporated herein by reference.
^(b) Approximate oral ED50 value for inhibition of
apomorphineinduced gnawing behaviour in the rat.

food intake (spaghetti) = assay: Anorexia: inhibition of food intake (spaghetti) in screening test in the mouse; settings: 10 mg kg^-1 p.os.
Protocol: as §1
^(c) Percentage inhibition of food intake (spaghetti) in screening
test at 10 mg kg^-1 p.os. in the mouse.

stomach emptying = assay: Stomach emptying in the rat; settings: 0.3, 1.0 or 3.0 mg kg^-1 i.p.
Description: as §1
^(d) Active at 0.3 (+++), 1.0 (++) or 3.0 (+) mg kg^-1 i.p. in
causing significant stomach emptying in the rat.

Row | Structure (SMILES) | ED50 [1] | Anorexia: percentage inhibition of food intake (spaghetti) (food intake (spaghetti)) | Stomach emptying (stomach emptying)
1 | COc1cc(N)c(Cl)cc1C(=O)NC1CCN(Cc2ccccc2)CC1.Cl [Clebopride hydrochloride, N-(1-benzylpiperid-4-yl)-2-methoxy-4-amino-5-chlorobenzamide hydrochloride, reference compound] | 2.5 mg/kg | 84% | 
2 | COc1cc(N)c(Cl)cc1C(=O)N(C)C1CCN(C(C)c2ccccc2)CC1 (stereo not shown) [R3'=CH3; R7'=CH3, N-methyl-N-[1-(1-phenylethyl)piperid-4-yl]-2-methoxy-4-amino-5-chlorobenzamide] | > 300 mg/kg | 0% | 0
3 | CCN(C(=O)c1cc(Cl)c(N)cc1OC)C1CCN(Cc2ccccc2)CC1.Cl [R3'=H; R7'=C2H5, N-ethyl-N-(1-benzylpiperid-4-yl)-2-methoxy-4-amino-5-chlorobenzamide hydrochloride] | ~300 mg/kg | 0% | 
4 | COc1cc(N)c(Cl)cc1C(=O)N(C)C1CCN(Cc2ccccc2)CC1.Cl [R3'=H; R7'=CH3, N-methyl-N-(1-benzylpiperid-4-yl)-2-methoxy-4-amino-5-chlorobenzamide hydrochloride] | > 300 mg/kg | 0% | 
5 | COc1cc(N)c(Cl)cc1C(=O)NC1CC(C)N(Cc2ccccc2)C(C)C1 (stereo not shown) [R5'=2-Me; R6'=6-Me; R7'=H, N-(1-benzyl-2,6-dimethylpiperid-4-yl)-2-methoxy-4-amino-5-chlorobenzamide] | ~100 mg/kg | 89% | 
6 | COc1cc(N)c(Cl)cc1C(=O)NC1CCN(Cc2ccccc2)CC1C (stereo not shown) [R5'=3-Me; R7'=H, N-(1-benzyl-3-methylpiperid-4-yl)-2-methoxy-4-amino-5-chlorobenzamide] | 58 mg/kg | 34% | 
